From patent US11208407B2, “Substituted phenyl compounds as indoleamine 2,3-dioxygenase (IDO) inhibitors” (Merck Sharp & Dohme Corp., priority 2017, dated 2021) come the findings set out here.

IDO1, sequence (P14902 whole entry): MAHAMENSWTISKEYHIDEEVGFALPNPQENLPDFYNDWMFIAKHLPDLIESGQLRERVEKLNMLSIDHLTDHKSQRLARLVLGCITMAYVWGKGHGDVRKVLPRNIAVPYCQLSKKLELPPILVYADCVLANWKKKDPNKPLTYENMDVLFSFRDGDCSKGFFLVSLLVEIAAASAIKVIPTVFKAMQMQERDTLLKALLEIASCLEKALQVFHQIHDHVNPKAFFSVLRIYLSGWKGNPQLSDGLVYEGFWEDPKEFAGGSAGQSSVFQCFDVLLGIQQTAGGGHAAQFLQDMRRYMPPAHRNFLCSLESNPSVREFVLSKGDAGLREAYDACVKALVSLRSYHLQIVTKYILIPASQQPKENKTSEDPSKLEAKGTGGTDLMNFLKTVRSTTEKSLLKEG

This assay has as its target IDO1 (Homo sapiens, UniProt P14902). Briefly: IDO1 Cellular Assay in HeLa Cells Stimulated with IFNγ. In kind it is cell-based. Particulars: IFNγ 100 ng/mL, 300 uM L-tryptophan, about 48 hours, read-out: IDO HeLa Cell Assay, IC50. The procedure:
Biological Assays IDO1 Cellular Assay in HeLa Cells Stimulated with IFNγ
HeLa cells were cultured in complete HeLa culture medium (90% EMEM, 10% heat-inactivated fetal bovine serum) and expanded to about 1×10^9 cells. The cells were then collected and frozen down at 1×10^7 cells/vial in 1 mL frozen medium (90% complete HeLa culture medium, 10% DMSO).
Compounds to be tested were serially diluted in ten 3-fold steps in DMSO starting from 10 mM DMSO stocks in Echo low volume plate(s). Compound dilutions or DMSO alone were then dispensed from the dilution plate(s) into Greiner black 384-well assay plate(s) (catalog #781086, 50 nL/well) using an Echo 550 acoustic liquid handler (Labcyte).
Frozen HeLa cells were thawed and transferred into HeLa assay medium (99% complete HeLa culture medium, 1% Pen/Strep) with 20 mL medium/vial of cells. The cells were spun down at 250 g in a table top centrifuge for 5 min and suspended in same volume of HeLa assay medium. The cells were then counted and adjusted to a density of 2×10^5 cells/mL in HeLa assay medium. Sterile L-tryptophan were added to the cells with final concentration of 300 uM L-tryptophan. A small aliquot (2 mL/plate) of HeLa cells were set aside and were not treated with IFNγ, to serve as the Max-E control.
HeLa cells with and without IFNγ were dispensed to the respective wells of 384-well assay plates containing the compounds. The plates were incubated for about 48 hours at a 37° C., 5% CO2 incubator. Afterwards, 12 μL of 0.5 M methyl isonipecotate in dimethyl sulfoxide were added into each well and the plates were sealed and incubated at 37° C. without CO2 overnight. The plates were centrifuged for 1 min at 200×g. The resulting fluorescence was measured in a Spectramax plate reader (Molecular Devices) with a 400 nm excitation filter and a 510 nm emission filter.
The fluorescence intensity of each well was corrected for the background observed in wells with non-IFNγ-treated cells and was expressed as a fraction of the intensity observed in wells of IFNγ-treated cells and DMSO only. Potencies were calculated by linear least squares fit to the four parameter logistic IC50 equation.
As for `N#Cc1cnc2nc(C3(c4ccc(NC(=O)c5cccc(Cl)c5)cc4)CCC3)[nH]c2c1` [Example 2, 3-Chloro-N-(4-(1-(6-cyano-1H-imidazo[4,5-b]pyridin-2-yl)cyclobutyl)phenyl)benzamide], the IC50 was 1.97 nM.
As for `O=C(Nc1ccc(C2(c3nc4ccccc4[nH]3)CCC2)cc1)c1cccc(Cl)c1` [Example 4, N-(4-(1-(1H-benzo[d]imidazol-2-yl)cyclobutyl)phenyl)-3-chlorobenzamide], the figure is 3.01 nM; as for `N#Cc1cccc(C(=O)Nc2ccc(C3(c4nc5cc(C(F)(F)F)cnc5[nH]4)CCC3)cc2)c1` [Example 6, 3-Cyano-N-(4-(1-(6-(trifluoromethyl)-3H-imidazo[4,5-b]pyridin-2-yl)cyclobutyl)phenyl)benzamide], 3.18 nM; as for `O=C(Nc1ccc(C2(c3nc4cc(Br)cnc4[nH]3)CCC2)cc1Cl)c1cccc(Br)c1` [Example 12, 3-Bromo-N-(4-(1-(6-bromo-3H-imidazo[4,5-b]pyridin-2-yl)cyclobutyl)-2-chlorophenyl)benzamide], 1.73 nM.
Consider `N#Cc1cccc(C(=O)Nc2ccc(C3(c4nc5cc(C#N)cnc5[nH]4)CCC3)cc2Cl)c1` [Example 13, N-(2-chloro-4-(1-(6-cyano-3H-imidazo[4,5-b]pyridin-2-yl)cyclobutyl)phenyl)-3-cyanobenzamide], for which the IC50 is 7.18 nM.
In the case of `N#Cc1cccc(C(=O)Nc2ccc(C3(c4nc5cc(C#N)cnc5[nH]4)CCC3)cc2C#N)c1` [Example 14, 3-cyano-N-(2-cyano-4-(1-(6-cyano-3H-imidazo[4,5-b]pyridin-2-yl)cyclobutyl)phenyl)benzamide], the IC50 was found to be 140 nM.
On to `Cc1cc(C2(c3nc4cc(C#N)cnc4[nH]3)CCC2)ccc1NC(=O)c1cccc(C#N)c1` [Example 15, 3-Cyano-N-(4-(1-(6-cyano-3H-imidazo[4,5-b]pyridin-2-yl)cyclobutyl)-2-methylphenyl)benzamide], for which the IC50 worked out at 15.9 nM.
Regarding `C=Cc1cc(C2(c3nc4cc(C#N)cnc4[nH]3)CCC2)ccc1Nc1ccn(C)n1` [Example 20, 2-(1-(4-((1-Methyl-1H-pyrazol-3-yl)amino)-3-vinylphenyl)cyclobutyl)-3H-imidazo[4,5-b]pyridine-6-carbonitrile], the IC50 turned out to be 176 nM.
As for `Cn1ccc(Nc2ccc(C3(c4nc5cc(C#N)cnc5[nH]4)CCC3)cc2CO)n1` [Example 21, 2-(1-(3-(Hydroxymethyl)-4-((1-methyl-1H-pyrazol-3-yl)amino)phenyl)cyclobutyl)-3H-imidazo[4,5-b]pyridine-6-carbonitrile], the figure is 819 nM; as for `N#Cc1cnc2[nH]c(C3(c4ccc(NC(=O)OC5CC5)cc4)CCC3)nc2c1` [Example 22, Cyclopropyl (4-(1-(6-cyano-3H-imidazo[4,5-b]pyridin-2-yl)cyclobutyl)phenyl)carbamate], 41.8 nM.
As for `N#Cc1cccc(C(=O)Nc2ccc(C3(c4nc5ccc(Cl)cc5[nH]4)CC(O)C3)cc2)c1` (centres unmarked) [Example 23, N-(4-(1-(6-chloro-1H-benzo[d]imidazol-2-yl)-3-hydroxycyclobutyl)phenyl)-3-cyanobenzamide], the figure is 43.4 nM; as for `N#Cc1cnc2nc(C3(c4ccc(C(=O)NC5CCCCC5)cc4)CC(F)(F)C3)[nH]c2c1` [Example 28, 4-(1-(6-Cyano-1H-imidazo[4,5-b]pyridin-2-yl)-3,3-difluorocyclobutyl)-N-cyclohexylbenzamide], 890 nM; as for `Cc1cccc(NC(=O)c2ccc(C3(c4nc5ncc(C#N)cc5[nH]4)CC(F)(F)C3)cc2)n1` [Example 29, 4-(1-(6-Cyano-1H-imidazo[4,5-b]pyridin-2-yl)-3,3-difluorocyclobutyl)-N-(6-methylpyridin-2-yl)benzamide], 590 nM.
As for `N#Cc1cccc(NC(=O)c2ccc(C3(c4nc5ncc(C(F)(F)F)cc5[nH]4)CCC3)cc2)c1` [Example 30, N-(3-cyanophenyl)-4-{1-[6-(trifluoromethyl)-1H-imidazo[4,5-b]pyridin-2-yl]cyclobutyl}benzamide], the figure is 5.09 nM; as for `O=C(Nc1cccc(F)c1)c1ccc(C2(c3nc4ncc(C(F)(F)F)cc4[nH]3)CCC2)cc1` [Example 31, N-(3-fluorophenyl)-4-{1-[6-(trifluoromethyl)-1H-imidazo[4,5-b]pyridin-2-yl]cyclobutyl}benzamide], 2.09 nM.
Regarding `O=C(Nc1ccc(F)cc1F)c1ccc(C2(c3nc4ncc(C(F)(F)F)cc4[nH]3)CCC2)cc1` [Example 32, N-(2,4-difluorophenyl)-4-{1-[6-(trifluoromethyl)-1H-imidazo[4,5-b]pyridin-2-yl]cyclobutyl}benzamide], the IC50 was found to be 2.65 nM.
Then `O=C(Nc1cncc(Cl)c1)c1ccc(C2(c3nc4ncc(C(F)(F)F)cc4[nH]3)CCC2)cc1` [Example 33, N-(5-chloropyridin-3-yl)-4-{1-[6-(trifluoromethyl)-1H-imidazo[4,5-b]pyridin-2-yl]cyclobutyl}benzamide], with 9.94 nM; and `O=C(NC1CCCCC1)c1ccc(C2(c3nc4ncc(C(F)(F)F)cc4[nH]3)CCC2)cc1` [Example 34, N-cyclohexyl-4-{1-[6-(trifluoromethyl)-1H-imidazo[4,5-b]pyridin-2-yl]cyclobutyl}benzamide], with 152 nM; and `CC(C)CNC(=O)c1ccc(C2(c3nc4ncc(C(F)(F)F)cc4[nH]3)CCC2)cc1` [Example 35, N-(2-methylpropyl)-4-{1-[6-(trifluoromethyl)-1H-imidazo[4,5-b]pyridin-2-yl]cyclobutyl}benzamide], with 39.6 nM.
As for `N#Cc1ccc(F)c(NC(=O)c2ccc(C3(c4nc5ncc(C(F)(F)F)cc5[nH]4)CCC3)cc2)c1` [Example 36, N-(5-cyano-2-fluorophenyl)-4-{1-[6-(trifluoromethyl)-1H-imidazo[4,5-b]pyridin-2-yl]cyclobutyl}benzamide], the IC50 came to 7.69 nM.
`O=C(Nc1cc(Cl)ccc1F)c1ccc(C2(c3nc4ncc(C(F)(F)F)cc4[nH]3)CCC2)cc1` [Example 37, N-(5-chloro-2-fluorophenyl)-4-{1-[6-(trifluoromethyl)-1H-imidazo[4,5-b]pyridin-2-yl]cyclobutyl}benzamide]: the concentration for half-maximal inhibition (IC50) is 2.03 nM.
Then `N#Cc1cccc(NC(=O)c2ccc(C3(c4nc5ncc(C#N)cc5[nH]4)CC(F)(F)C3)cc2)c1` [Example 38, 4-[1-(6-cyano-1H-imidazo[4,5-b]pyridin-2-yl)-3,3-difluorocyclobutyl]-N-(3-cyanophenyl)benzamide], with 5.09 nM; and `COc1cc(C(F)(F)F)ncc1-c1ccc(C2(c3nc4cc(C(F)(F)F)cnc4[nH]3)COC2)cc1` [Example 41, 2-(3-{4-[4-methoxy-6-(trifluoromethyl)pyridin-3-yl]phenyl}oxetan-3-yl)-6-(trifluoromethyl)-3H-imidazo[4,5-b]pyridine], with 7.64 nM.

Usually IC50 stands for the concentration at which inhibition is half-maximal.
